Source: PubChem BioAssay AID328 (DTP/NCI, 2004)
“And” between values parts separate entries of the source, which are not always exact repeats. Equal entries are not always repeated. Inconclusive results and toxic doses are left out.

Tested on: BDF1 mice, P388 leukemia ip, median survival T/C
Assay: NCI In Vivo Anticancer Drug Screen. Data for tumor model P388 Leukemia (intraperitoneal) in B6D2F1 (BDF1) mice
Settings: endpoint: median survival time, higher = longer survival
Method in brief: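 Survival ratio, drug arm over vehicle arm, in mice with a transplanted tumour.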

[1] = dose: 100.0 mg/kg/injection, schedule: Q01DX009 (ip), vehicle: Klucel (hydroxypropylcellulose) (HPC)
[2] = dose: 100.0 mg/kg/injection, schedule: Q04DX003 (ip), vehicle: Klucel (hydroxypropylcellulose) (HPC)
[3] = dose: 100.0 mg/kg/injection, schedule: Q04DX003 (ip), vehicle: saline sonified
[4] = dose: 400.0 mg/kg/injection, schedule: Q04DX003 (ip), vehicle: saline sonified
[5] = dose: 50.0 mg/kg/injection, schedule: Q01DX009 (ip), vehicle: saline with Tween-80
[6] = dose: 100.0 mg/kg/injection, schedule: Q01DX009 (ip), vehicle: saline with Tween-80
[7] = dose: 200.0 mg/kg/injection, schedule: Q01DX009 (ip), vehicle: saline with Tween-80
[8] = dose: 400.0 mg/kg/injection, schedule: Q01DX009 (ip), vehicle: saline with Tween-80
[9] = dose: 12.5 mg/kg/injection, schedule: Q01DX009 (ip), vehicle: saline
[10] = dose: 25.0 mg/kg/injection, schedule: Q01DX009 (ip), vehicle: saline
[11] = dose: 25.0 mg/kg/injection, schedule: Q04DX003 (ip), vehicle: saline
[12] = dose: 50.0 mg/kg/injection, schedule: Q01DX009 (ip), vehicle: saline
[13] = dose: 50.0 mg/kg/injection, schedule: Q04DX003 (ip), vehicle: saline
[14] = dose: 75.0 mg/kg/injection, schedule: Q04DX003 (ip), vehicle: saline
[15] = dose: 200.0 mg/kg/injection, schedule: Q04DX003 (ip), vehicle: saline with Tween-80
[16] = dose: 100.0 mg/kg/injection, schedule: Q04DX003 (ip), vehicle: saline
[17] = dose: 200.0 mg/kg/injection, schedule: Q04DX003 (ip), vehicle: saline
[18] = dose: 400.0 mg/kg/injection, schedule: Q04DX003 (ip), vehicle: saline
[19] = dose: 25.0 mg/kg/injection, schedule: Q04DX003 (ip), vehicle: saline with Tween-80
[20] = dose: 100.0 mg/kg/injection, schedule: Q04DX003 (ip), vehicle: saline with Tween-80

SMILES: C(=NCCc1ccccc1)c1ccccc1B1OB(c2ccccc2C=NCCc2ccccc2)OB(c2ccccc2C=NCCc2ccccc2)O1
- T/C [1]: 88 % of control
- T/C [2]: 100 % of control
- T/C (dose: 200.0 mg/kg/injection, schedule: Q01DX009 (ip), vehicle: Klucel (hydroxypropylcellulose) (HPC)): 105 % of control
- T/C (dose: 400.0 mg/kg/injection, schedule: Q01DX009 (ip), vehicle: Klucel (hydroxypropylcellulose) (HPC)): 88 % of control
- T/C (dose: 400.0 mg/kg/injection, schedule: Q04DX003 (ip), vehicle: Klucel (hydroxypropylcellulose) (HPC)): 91 % of control

SMILES: O=C(O)c1cc(C(Cl)(Cl)Cl)ccc1C(Cl)(Cl)Cl
- T/C [3]: 95 % of control
- T/C [4]: 104 % of control

SMILES: CS(=O)(=O)N(CC(=O)O)Cc1ccccc1
- T/C (dose: 50.0 mg/kg/injection, schedule: Q04DX003 (ip), vehicle: sodium bicarbonate): 107 % of control
- T/C (dose: 100.0 mg/kg/injection, schedule: Q04DX003 (ip), vehicle: sodium bicarbonate): 119 % of control
- T/C (dose: 200.0 mg/kg/injection, schedule: Q04DX003 (ip), vehicle: sodium bicarbonate): 103 % of control
- T/C (dose: 400.0 mg/kg/injection, schedule: Q04DX003 (ip), vehicle: sodium bicarbonate): 110 % of control

SMILES: O=[N+]([O-])c1ccc(Sc2ccc(Cl)cc2)c2c1no[n+]2[O-]
- T/C (dose: 15.0 mg/kg/injection, schedule: Q01DX009 (ip), vehicle: saline with Tween-80): 112 % of control
- T/C (dose: 30.0 mg/kg/injection, schedule: Q01DX009 (ip), vehicle: saline with Tween-80): 112 % of control
- T/C (dose: 60.0 mg/kg/injection, schedule: Q01DX009 (ip), vehicle: saline with Tween-80): 112 % of control

SMILES: O=S(=O)([O-])NC1CCCCC1.O=S(=O)([O-])NC1CCCCC1.[Hg+2].[Hg+2].[Hg+2].[O-2].[O-2]
- T/C (dose: 0.5 mg/kg/injection, schedule: Q01DX009 (ip), vehicle: Klucel (hydroxypropylcellulose) (HPC)): 99 % of control
- T/C (dose: 1.0 mg/kg/injection, schedule: Q01DX009 (ip), vehicle: Klucel (hydroxypropylcellulose) (HPC)): 111 % of control
- T/C (dose: 2.0 mg/kg/injection, schedule: Q01DX009 (ip), vehicle: Klucel (hydroxypropylcellulose) (HPC)): 111 % of control
- T/C (dose: 4.0 mg/kg/injection, schedule: Q01DX009 (ip), vehicle: Klucel (hydroxypropylcellulose) (HPC)): 121 % of control
- T/C (dose: 8.0 mg/kg/injection, schedule: Q01DX009 (ip), vehicle: Klucel (hydroxypropylcellulose) (HPC)): 101 % of control

SMILES: CCNC(=O)OCc1c(COC(=O)NCC)c(-c2ccc(F)cc2)n2c1CCC2
- T/C (dose: 25.0 mg/kg/injection, schedule: Q01DX009 (ip), vehicle: other): 98 % of control

SMILES: Cc1c(Cl)cccc1NC(=O)/C=C/C(=O)O
- T/C (dose: 44.0 mg/kg/injection, schedule: Q01DX009 (ip), vehicle: saline with Tween-80): 95 % of control
- T/C [5]: 122 % of control
- T/C (dose: 66.0 mg/kg/injection, schedule: Q01DX009 (ip), vehicle: saline with Tween-80): 100 % of control
- T/C [6]: 100 % of control
- T/C (dose: 150.0 mg/kg/injection, schedule: Q01DX009 (ip), vehicle: saline with Tween-80): 104 % of control
- T/C [7]: 109 % of control

SMILES: CCOC(=O)C1=C(O)c2c(sc(C)c2-c2ccccc2)N(S(=O)(=O)c2ccc(C)cc2)CC1
- T/C [6]: 100 % of control
- T/C [7]: 109 % of control
- T/C [8]: 95 % of control

SMILES: NNC(=O)c1ccc(Br)cc1
- T/C (dose: 50.0 mg/kg/injection, schedule: Q01DX009 (ip), vehicle: Klucel (hydroxypropylcellulose) (HPC)): 96 % of control
- T/C [1]: 92 % of control
- T/C [2]: 95 % of control
- T/C (dose: 200.0 mg/kg/injection, schedule: Q04DX003 (ip), vehicle: Klucel (hydroxypropylcellulose) (HPC)): 91 % of control

SMILES: COc1cccc(CC2=NCCc3cc(OC)c(OC)cc32)c1
- T/C (dose: 6.25 mg/kg/injection, schedule: Q01DX009 (ip), vehicle: saline): 108 % of control
- T/C [9]: 94 % of control
- T/C [10]: 94 % of control
- T/C [11]: 87 % of control
- T/C [12]: 95 % of control and 98 % of control
- T/C [13]: 91 % of control

SMILES: CS(=O)(=O)NN
- T/C [9]: 95 % of control
- T/C [10]: 95 % of control
- T/C (dose: 37.5 mg/kg/injection, schedule: Q04DX003 (ip), vehicle: saline): 100 % of control
- T/C [12]: 90 % of control
- T/C [14]: 90 % of control

SMILES: C[n+]1c(-c2cc(N)cc(C(F)(F)F)c2)c2cc(N)ccc2c2ccc(N)cc21
- T/C (dose: 6.25 mg/kg/injection, schedule: Q01DX009 (ip), vehicle: water): 150 % of control
- T/C (dose: 12.5 mg/kg/injection, schedule: Q01DX009 (ip), vehicle: water): 181 % of control
- T/C (dose: 25.0 mg/kg/injection, schedule: Q01DX009 (ip), vehicle: water): 95 % of control

SMILES: COCCCNS(=O)(=O)c1ncnc2nc[nH]c12
- T/C (dose: 132.0 mg/kg/injection, schedule: Q04DX003 (ip), vehicle: saline with Tween-80): 100 % of control
- T/C [15]: 100 % of control
- T/C (dose: 300.0 mg/kg/injection, schedule: Q04DX003 (ip), vehicle: saline with Tween-80): 100 % of control

SMILES: NC(=S)NCc1ccccc1C(O)c1ccccc1 (centres undefined)
- T/C [5]: 94 % of control
- T/C [6]: 91 % of control
- T/C [7]: 101 % of control

SMILES: CCCCCCCCCCCCCCCCN(C)Cc1ccccc1
- T/C [16]: 107 % of control
- T/C [17]: 108 % of control
- T/C [18]: 116 % of control

SMILES: CN/N=C/c1c2c(O)c3c(O)c(C)c4c(c3c1O)C(=O)C(C)(O/C=C/C(OC)C(C)C(OC(C)=O)C(C)C(O)C(C)C(O)C(C)/C=C/C=C(/C)C(=O)N2)O4 (centres undefined)
- T/C [5]: 90 % of control
- T/C [6]: 116 % of control
- T/C [7]: 117 % of control

SMILES: Nc1nc(-c2ccccc2)cc2ccccc12
- T/C (dose: 12.5 mg/kg/injection, schedule: Q04DX003 (ip), vehicle: saline with Tween-80): 100 % of control
- T/C [19]: 97 % of control

SMILES: COC(=O)C(N)CSCSC (centres undefined)
- T/C [16]: 90 % of control
- T/C [17]: 100 % of control
- T/C [18]: 90 % of control

SMILES: CCC(C(=O)O)C(=O)O.[NH-]CC[NH-].[Pt+2]
- T/C [11]: 100 % of control
- T/C (dose: 33.0 mg/kg/injection, schedule: Q04DX003 (ip), vehicle: saline): 118 % of control
- T/C [13]: 154 % of control

SMILES: CC1(C)N=C(N)N=C(N)N1c1ccc(CNC(=O)Nc2cccc(S(=O)(=O)F)c2)cc1
- T/C (dose: 35.0 mg/kg/injection, schedule: Q04DX003 (ip), vehicle: saline): 104 % of control
- T/C [13]: 150 % of control
- T/C [14]: 163 % of control
- T/C (dose: 99.0 mg/kg/injection, schedule: Q04DX003 (ip), vehicle: saline): 200 % of control
- T/C (dose: 150.0 mg/kg/injection, schedule: Q04DX003 (ip), vehicle: saline): 159 % of control and 195 % of control and 215 % of control
- T/C (dose: 225.0 mg/kg/injection, schedule: Q04DX003 (ip), vehicle: saline): 225 % of control and 163 % of control
- T/C (dose: 300.0 mg/kg/injection, schedule: Q04DX003 (ip), vehicle: saline): 177 % of control

SMILES: CSc1c(C)[nH]c2ccc([N+](=O)[O-])cc12
- T/C (dose: 25.0 mg/kg/injection, schedule: Q01DX001 (ip), vehicle: saline with Tween-80): 95 % of control
- T/C (dose: 50.0 mg/kg/injection, schedule: Q01DX001 (ip), vehicle: saline with Tween-80): 111 % of control
- T/C (dose: 100.0 mg/kg/injection, schedule: Q01DX001 (ip), vehicle: saline with Tween-80): 100 % of control

SMILES: ClC1=C(Cl)C2(Cl)C3(Cl)C(Cl)=C(Cl)C(Cl)(C3c3ccccc3)C2(Cl)C1c1ccccc1 (centres undefined)
- T/C [6]: 95 % of control
- T/C [3]: 100 % of control
- T/C [7]: 95 % of control
- T/C (dose: 200.0 mg/kg/injection, schedule: Q04DX003 (ip), vehicle: saline sonified): 104 % of control
- T/C [8]: 95 % of control
- T/C [4]: 90 % of control

SMILES: O=[N+]([O-])OCc1c(Cl)nc(Cl)c(Cl)c1Cl
- T/C (dose: 25.0 mg/kg/injection, schedule: Q01DX009 (ip), vehicle: saline with Tween-80): 115 % of control
- T/C [19]: 95 % of control
- T/C [5]: 110 % of control
- T/C (dose: 50.0 mg/kg/injection, schedule: Q04DX003 (ip), vehicle: saline with Tween-80): 100 % of control
- T/C [20]: 108 % of control

SMILES: COc1ccc(-c2c(C)c(C)[nH]c(=O)c2C(=O)O)c(OCc2ccccc2)c1OC
- T/C [6]: 99 % of control
- T/C [20]: 110 % of control
- T/C [7]: 105 % of control
- T/C [15]: 103 % of control
- T/C [8]: 103 % of control
- T/C (dose: 400.0 mg/kg/injection, schedule: Q04DX003 (ip), vehicle: saline with Tween-80): 117 % of control
